One experiment concerns 1X-Ab. As to the kind of experiment: Competitive antigen ELISA, cross-reactivity of 1X-Ab. Type of experiment: binding, rabbit. The conditions noted are these: for % Cross-Reaction 1X-Ab: competitive antigen ELISA, 0 = absence of inhibition or inhibition no higher than 40% at highest concentration tested (5×10^−3 M). Here is the method: (§1) Buffers and water without additives are filtered through millipore filters and kept for 1 week. BSA, antibodies, Tween™ 20 and horse radish peroxidase conjugates are added to these buffers and water just prior to use. Urine samples are usually collected 4 hours after drinking a cup of coffee (instant or brewed with approximately 100 mg of caffeine per cup) and stored at −80° C. The urine samples are diluted 10 times with sodium phosphate buffer (620 mosm, pH 7.50) and are subsequently diluted with water to give concentrations of AAMU and 1X no higher than 3×10^−6 M in the ELISA. All the pipettings are done with an eight-channel pipette, except those of the antibody and sample solutions. Starting with the last well, 100 μL of a carbonate buffer (100 mM, pH 9.6) containing 2.5 μg mL-^1 antibodies are added to each well. After 90 min. at room temperature, the wells are washed three times with […] of TPB: isotonic sodium phosphate buffer (310 mosm, pH 7.50) containing 0.05% Tween™ 20.
(§2) After the initial wash, unoccupied sites are blocked by incubation for 90 min. at room temperature with 100 μL TBP containing 3% BSA. The wells are washed four times with 100 μL TPB. The washing is followed by additions of 50 μL of 12 mg mL^−1 AAMU-HRP or 1X-HRP conjugate in 2×TPB containing 2% BSA, and 50 μL of either water, standard (13 standards; AAMU or 1X, 2×10^−4 to 2×10^−8 M) or sample in duplicate. The microplate is gently shaken with an orbital shaker at room temperature for 3-4 hours. The wells are washed three times with 100 μL TPB containing 1% BSA and three times with water containing 0.05% Tween™ 20. To the washed plate is added 150 μL of a substrate buffer composed of citric acid (25 mM) and sodium phosphate dibasic buffer (50 mM, pH 5.0) containing 0.06% hydrogen peroxide and 0.04% o-phenylenediamine hydrochloride.
(§3) Buffers and water without additives were filtered through millipore filters and kept for 1 week. BSA, antibodies, Tween™ 20 and horse radish peroxidase conjugates were added to these buffers and water just prior to use. Urine samples were usually collected 4 hours after drinking a cup of coffee (instant or brewed with approximately 100 mg of caffeine per cup) and stored at −80° C. They were diluted 10 times with sodium phosphate buffer (620 mosm, pH 7.50) and were subsequently diluted with water to give concentrations of AAMU and 1X no higher than 3×10^−6 M in the ELISA. All the pipettings were done with an eight-channel pipette, except those of the antibody and sample solutions. Starting with the last well, 100 μL of a carbonate buffer (100 mM, pH 9.6) containing 2.5 μg mL-^1 antibodies was pipetted. After 90 min. at room temperature, the wells were washed three times with 100 μL of TPB: isotonic sodium phosphate buffer (310 mosm, pH 7.50) containing 0.05% Tween™ 20.
(§4) After the initial wash, unoccupied sites were blocked by incubation for 90 min. at room temperature with 100 μL TBP containing 3% BSA. The wells were washed four times with 100 μL TPB. This was followed by additions of 50 μL of 12 mg mL^−1 AAMU-HRP or 1X-HRP conjugate in 2×TPB containing 2% BSA, and 50 μL of either water, standard (13 standards; AAMU or 1X, 2×10^−4 to 2×10^−8 M) or sample in duplicate. The microplate was gently shaken with an orbital shaker at room temperature for 3-4 hours. The wells were washed three times with 100 μL with TPB containing 1% BSA and three times with water containing 0.05% Tween™ 20. To the washed plate was added 150 μL of a substrate buffer composed of citric acid (25 mM) and sodium phosphate dibasic buffer (50 mM, pH 5.0) containing 0.06% hydrogen peroxide and 0.04% o-phenylenediamine hydrochloride. After 20 min. at room temperature with shaking, the reaction was stopped with 50 μL of 2.5 N HCl.
(§5) The cross reactivities of AAMU-Ab and 1X-Ab were tested using a wide variety of caffeine metabolites and structural analogs (Table 2 below).
Background: In an ELISA, binding on a coated surface is turned into a signal by an enzyme label.

The subject of the next experiment is AAMU-Ab. Put plainly: Competitive antigen ELISA, cross-reactivity of AAMU-Ab. Type of experiment: binding, rabbit. The conditions noted are these: for % Cross-Reaction AAMU-Ab: competitive antigen ELISA, 0 = absence of inhibition or inhibition no higher than 40% at highest concentration tested (5×10^−3 M). Here is the method: as §1, §2, §3, §4, §5

Marks after values point to notes of the source that are not given here.

Regarding `Cn1c(=O)c2c(ncn2C)n(C)c1=O` [1,3,7-Trimethyl Xanthine (Caffeine), 1,3,7-Trimethyl Xanthine], the “% Cross-Reaction 1X-Ab” value in the experiment on 1X-Ab came to 0%. For the same compound, in the experiment on AAMU-Ab, the “% Cross-Reaction AAMU-Ab” value is recorded as 0%.

Take `Cn1c(=O)c2[nH]cnc2n(C)c1=O` [1,3-Dimethyl Xanthine (Theophylline), 1,3-Dimethyl Xanthine]: the “% Cross-Reaction 1X-Ab” value with 1X-Ab is 0.2%. For the same compound, the “% Cross-Reaction AAMU-Ab” value in the experiment on AAMU-Ab stood at 0%.

As for `Cn1c(=O)[nH]c2ncn(C)c2c1=O` [1,7-Dimethyl Xanthine (Paraxanthine), 1,7-Dimethyl Xanthine], the “% Cross-Reaction 1X-Ab” value in the experiment with 1X-Ab is listed as 0.5%. For the same compound, in the experiment on AAMU-Ab, the “% Cross-Reaction AAMU-Ab” value turned out to be 0%.

With `Cn1c(=O)[nH]c2[nH]c(=O)n(C)c2c1=O` [1,7-Dimethyluric acid], in the experiment on 1X-Ab, the “% Cross-Reaction 1X-Ab” value is reported as 0%. Moreover, the “% Cross-Reaction AAMU-Ab” value in the experiment with AAMU-Ab is recorded as 0%.

Consider `Cn1c(=O)[nH]c2nc[nH]c2c1=O` [1-Methyl Xanthine (1X), 1-Methyl Xanthine], for which the IC50 in the experiment on 1X-Ab (1X-Ab, 1X-HRP conjugate, read-out: concentration required for 50% inhibition in the competitive antigen ELISA) was found to be 10 µM. The “% Cross-Reaction 1X-Ab” value in the experiment on 1X-Ab is recorded as 100%. The “% Cross-Reaction AAMU-Ab” value in the experiment on AAMU-Ab amounted to 0%.

In the case of `Cn1c(=O)[nH]c2[nH]c(=O)[nH]c2c1=O` [1-Methyluric acid], the “% Cross-Reaction 1X-Ab” value in the experiment with 1X-Ab is listed as 11%. Also, the “% Cross-Reaction AAMU-Ab” value in the experiment on AAMU-Ab amounted to 0%.

Consider `Cn1cnc2c1c(=O)[nH]c(=O)n2C` [3,7-Dimethyl Xanthine (Theobromine), 3,7-Dimethyl Xanthine], for which the “% Cross-Reaction 1X-Ab” value in the experiment with 1X-Ab came to 0%. In the experiment on AAMU-Ab, the “% Cross-Reaction AAMU-Ab” value is 0%.

In the case of `Cn1c(=O)[nH]c(=O)c2[nH]cnc21` [3-Methyl Xanthine], in the experiment on 1X-Ab, the “% Cross-Reaction 1X-Ab” value worked out at 0%. Further, the “% Cross-Reaction AAMU-Ab” value with AAMU-Ab is listed as 0%.

For the compound `CC(=O)Nc1c(N)n(C)c(=O)n(C)c1=O` [5-Acetamino-6-amino-1,3-dimethyluracil], in the experiment on 1X-Ab, the “% Cross-Reaction 1X-Ab” value amounted to 0%. Further, in the experiment with AAMU-Ab, the “% Cross-Reaction AAMU-Ab” value is 0%.

As for `CC(=O)Nc1c(N)n(C)c(=O)[nH]c1=O` [5-Acetamino-6-amino-1-methyluracil], the “% Cross-Reaction 1X-Ab” value with 1X-Ab is on record as 0%. Besides, in the experiment with AAMU-Ab (AAMU-Ab, AAMU-HRP conjugate, read-out: concentration required for 50% inhibition in the competitive antigen ELISA), the IC50 came to 1.5 µM. Further, the “% Cross-Reaction AAMU-Ab” value in the experiment with AAMU-Ab was 100%.

Regarding `CC(=O)Nc1c(N)[nH]c(=O)[nH]c1=O` [5-Acetamino-6-amino-uracil], in the experiment with 1X-Ab, the “% Cross-Reaction 1X-Ab” value is reported as 0%. In addition, the “% Cross-Reaction AAMU-Ab” value in the experiment with AAMU-Ab amounted to 0.6%.

Take `Cn1cnc2[nH]c(=O)[nH]c(=O)c21` [7-Methyl Xanthine]: in the experiment with 1X-Ab, the “% Cross-Reaction 1X-Ab” value was found to be 0%. Moreover, in the experiment with AAMU-Ab, the “% Cross-Reaction AAMU-Ab” value worked out at 0%.

As for `Cc1nc2[nH]c(=O)[nH]c(=O)c2[nH]1` [8-Methyl Xanthine], the “% Cross-Reaction 1X-Ab” value with 1X-Ab was found to be 0%. Moreover, the “% Cross-Reaction AAMU-Ab” value in the experiment with AAMU-Ab was 0%.

Consider `Nc1nc2nc[nH]c2c(=O)[nH]1` [Guanine], for which, in the experiment with 1X-Ab, the “% Cross-Reaction 1X-Ab” value was 0%. In the experiment on AAMU-Ab, the “% Cross-Reaction AAMU-Ab” value is listed as 0%.

For `O=c1[nH]cnc2nc[nH]c12` [Hypoxanthine], the “% Cross-Reaction 1X-Ab” value in the experiment on 1X-Ab is reported as 0%. Moreover, the “% Cross-Reaction AAMU-Ab” value in the experiment with AAMU-Ab is given as 0%.

Take `O=c1cc[nH]c(=O)[nH]1` [Uracil]: in the experiment on 1X-Ab, the “% Cross-Reaction 1X-Ab” value was found to be 0%. The “% Cross-Reaction AAMU-Ab” value in the experiment on AAMU-Ab is given as 0%.

With `O=c1[nH]c(=O)c2[nH]c(=O)[nH]c2[nH]1` [Uric acid], the “% Cross-Reaction 1X-Ab” value in the experiment on 1X-Ab is listed as 0%. In addition, the “% Cross-Reaction AAMU-Ab” value with AAMU-Ab stood at 0%.

Regarding `O=c1[nH]c(=O)c2[nH]cnc2[nH]1` [Xanthine], in the experiment on 1X-Ab, the “% Cross-Reaction 1X-Ab” value came out at 0%. For the same compound, the “% Cross-Reaction AAMU-Ab” value with AAMU-Ab is listed as 0^a %.

(Values after patent publication US20030103901A1, “ELISA kit for the determination of CYP2C19 metabolic phenotypes and uses thereof” (McGill University, priority 2001, published 2003).)
